These are literature values, as cited in patent publication EP3599609A1, “SYSTEM AND METHOD FOR CLEANING NOISY GENETIC DATA AND USING DATA TO MAKE PREDICTIONS” (Natera, Inc., priority 2005, dated 2007).

The conditions of this data set: colon cancer patients treated with irinotecan.

Take `CCc1c2c(nc3ccc(OC(=O)N4CCC(N5CCCCC5)CC4)cc13)-c1cc3c(c(=O)n1C2)COC(=O)[C@]3(O)CC` [irinotecan]: the “severe diarrhea, patients affected” value was 31% and the “severe neutropenia, patients affected” value is listed as 28%.
